# Read-outs that look alike come from different tables or passages of the source.
# Target: TRIP8b-HCN1c40 (Homo sapiens (Human), UniProt Q8IYB4)
# Assay: TRIP8b-HCN1c40 AlphaScreen assay
# Type: binding
# Protocol: AlphaScreen Assay. 20 nM ofGST-tagged HCNlc40 protein (corresponding to the C terminal 40 amino acids of HCN1) was incubated with 200 nM of His-tagged TRIP8b(241-602) and varying concentrations of the test compound as described in our prior report (Han et al., 2015). After a 3 h incubation, anti-GST AlphaScreen acceptor beads were added for 1.5 h followed by AlphaScreen nickel chelate donor beads for 1.5 h. AlphaScreen signal was quantified using a PerkinElmer (Waltham, MA) EnSpire multimode plate reader.
# [1] = activity ranges, read-out: TRIP8b-HCN1c40 Alphascreen IC50 activity
# [2] = read-out: TRIP8b-HCN1c40 Alphascreen IC50
# Chain of TRIP8b-HCN1c40 (Q8IYB4 265-626): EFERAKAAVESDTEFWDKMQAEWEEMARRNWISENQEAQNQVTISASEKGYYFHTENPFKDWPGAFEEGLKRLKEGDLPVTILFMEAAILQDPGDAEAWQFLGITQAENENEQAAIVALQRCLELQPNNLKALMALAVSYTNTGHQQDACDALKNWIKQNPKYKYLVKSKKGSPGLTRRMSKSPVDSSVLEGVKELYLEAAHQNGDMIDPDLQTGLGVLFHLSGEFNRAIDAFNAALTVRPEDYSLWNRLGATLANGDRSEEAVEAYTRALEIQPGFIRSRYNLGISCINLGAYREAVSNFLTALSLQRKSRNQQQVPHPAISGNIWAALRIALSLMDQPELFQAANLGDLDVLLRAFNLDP
SMILES,IC50 [1],IC50 [2]
CNC(=O)c1ccc(NC(=O)COc2ccc(-c3cccc(C)c3)cc2CN2CC[C@H](N)C2)cc1 [NUCC-0201623],20000 to 40000 nM,22000 nM
Cc1cccc(-c2ccc(OCC(=O)Nc3ccc(O)cc3)c(CN3CC[C@H](N)C3)c2)c1 [NUCC-0201624],10000 to 20000 nM,20000 nM
Cc1cccc(-c2ccc(OCC(=O)NCc3ccc(Cl)cc3)c(CN3CC[C@H](N)C3)c2)c1 [NUCC-0201625],5000 to 10000 nM,6100 nM
Cc1cccc(-c2ccc(OCC(=O)NCc3cccnc3)c(CN3CC[C@H](N)C3)c2)c1 [NUCC-0201626],,> 40000 nM
Cc1cccc(-c2ccc(OCC(=O)Nc3cc(O)c(O)c(O)c3)c(CN3CC[C@H](N)C3)c2)c1 [NUCC-0201628],5000 to 10000 nM,7800 nM
Cc1cc(C)c(-c2ccc(OCC(=O)NCc3ccc(Cl)cc3)c(CN3CCNCC3)c2)c(C)c1 [NUCC-0201629],2000 to 5000 nM,3100 nM
CN1CCN(Cc2cc(-c3ccc(Cl)c(Cl)c3)ccc2OCC(=O)NCc2ccc(Cl)cc2)CC1 [NUCC-0201708],,< 740 nM
CN1CCN(Cc2cc(-c3ccc(F)c(C(F)(F)F)c3)ccc2OCC(=O)NCc2ccc(Cl)cc2)CC1 [NUCC-0201709],2000 to 5000 nM,2800 nM
CSc1ccc(-c2ccc(OCC(=O)NCc3ccc(Cl)cc3)c(CN3CCN(C)CC3)c2)cc1 [NUCC-0201710],2000 to 5000 nM,2900 nM
CN1CCN(Cc2cc(-c3ccc(C(F)(F)F)cc3)ccc2OCC(=O)NCc2ccc(Cl)cc2)CC1 [NUCC-0201711],2000 to 5000 nM,3900 nM
CN1CCN(Cc2cc(-c3ccc(Cl)cc3)ccc2OCC(=O)NCc2ccc(Cl)cc2)CC1 [NUCC-0201712],2000 to 5000 nM,3000 nM
C=Cc1ccc(-c2ccc(OCC(=O)NCc3ccc(Cl)cc3)c(CN3CCN(C)CC3)c2)cc1 [NUCC-0201713],2000 to 5000 nM,4700 nM
CN1CCN(Cc2cc(-c3c(Cl)cc(Cl)cc3Cl)ccc2OCC(=O)NCc2ccc(Cl)c(Cl)c2)CC1 [NUCC-0201969],1000 to 2000 nM,1100 nM
CN1CCN(Cc2cc(-c3c(Cl)cc(Cl)cc3Cl)ccc2OCC(=O)NCc2ccc(Cl)cc2)CC1 [NUCC-0201970],,< 740 nM
CN1CCN(Cc2cc(-c3ccc(CCl)cc3)ccc2OCC(=O)NCc2ccc(Cl)c(Cl)c2)CC1 [NUCC-0201971],5000 to 10000 nM,6600 nM
CN1CCN(Cc2cc(-c3ccc(Cl)cc3)ccc2OCC(=O)NCc2ccc(Cl)cc2)CC1 [NUCC-0201972],,5000 nM

SMILES,IC50 [1],IC50 [2]
CN1CCN(Cc2cc(-c3ccc(Cl)c(Cl)c3)ccc2OCC(=O)NCc2ccc(Cl)cc2)CC1 [NUCC-0201973],1000 to 2000 nM,1300 nM
CN1CCN(Cc2cc(-c3ccc(Cl)cc3)ccc2OCCNS(=O)(=O)c2ccc(Cl)cc2)CC1 [NUCC-0201974],1000 to 2000 nM,1800 nM
CN1CCN(Cc2cc(-c3ccc(Cl)c(Cl)c3)ccc2OCCNS(=O)(=O)c2ccc(Cl)cc2)CC1 [NUCC-0201975],1000 to 2000 nM,1700 nM
CN1CCN(Cc2cc(-c3ccc(Cl)c(Cl)c3)ccc2OCCNCc2ccc(Cl)cc2)CC1 [NUCC-0201976],< 1000 nM,830 nM
CN1CCN(Cc2cc(-c3ccc(Cl)cc3)ccc2OCC(=O)NCc2ccc(Cl)c(Cl)c2)CC1 [NUCC-0201977],< 1000 nM,870 nM
CN1CCN(Cc2cc(-c3ccc(Cl)cc3Cl)ccc2OCC(=O)NCc2ccc(Cl)c(Cl)c2)CC1 [NUCC-0201978],< 1000 nM,< 740 nM
CN1CCN(Cc2cc(-c3cc(Cl)cc(Cl)c3)ccc2OCC(=O)NCc2ccc(Cl)c(Cl)c2)CC1 [NUCC-0201979],< 1000 nM,< 740 nM
CN1CCN(Cc2cc(-c3ccc(Cl)c(Cl)c3)ccc2OCC(=O)N2CCc3ccccc32)CC1 [NUCC-0201980],1000 to 2000 nM,1200 nM
CN1CCN(Cc2cc(-c3ccc(Cl)c(Cl)c3)ccc2OCC(=O)N2CCc3cc(Cl)ccc32)CC1 [NUCC-0201981],< 1000 nM,< 740 nM
CN1CCN(Cc2cc(-c3ccc(Cl)c(Cl)c3)ccc2OCC(=O)NCc2ccc(C(F)(F)F)cc2)CC1 [NUCC-0201982],2000 to 5000 nM,2500 nM
CN1CCN(Cc2cc(-c3ccc(Cl)c(Cl)c3)ccc2OCC(=O)NCc2ccccc2Cl)CC1 [NUCC-0201983],< 1000 nM,910 nM
CN1CCN(Cc2cc(-c3ccc(Cl)c(Cl)c3)ccc2OCC(=O)NCc2ccc(C#N)cc2)CC1 [NUCC-0201984],,5300 nM
CN1CCN(Cc2cc(-c3ccc(Cl)c(Cl)c3)ccc2OCC(=O)NCc2ccc([N+](=O)[O-])cc2)CC1 [NUCC-0201985],2000 to 5000 nM,2500 nM
CN1CCN(Cc2cc(-c3ccc(Cl)c(Cl)c3)ccc2OCC(=O)NCc2cccc(Cl)c2)CC1 [NUCC-0201986],1000 to 2000 nM,1100 nM
CN1CCN(Cc2cc(-c3ccc(Cl)c(Cl)c3)ccc2OCC(=O)NCc2ccccc2)CC1 [NUCC-0201987],2000 to 5000 nM,2500 nM
CN1CCN(Cc2cc(-c3ccc(Cl)c(Cl)c3)ccc2OCC(=O)NC2CCc3ccccc32)CC1 (centres unmarked) [NUCC-0201988],1000 to 2000 nM,1400 nM

# Reference: patent publication US20230391714A1, “INHIBITORS OF THE INTERACTION BETWEEN TRIP8B AND HCN CHANNELS AND USES THEREOF FOR TREATING NEUROLOGICAL DISEASES AND DISORDERS” (Northwestern University, priority 2022, published 2023)
